Results taken from ChEMBL document CHEMBL1137138, “Synthesis and antiviral activity of P1' arylsulfonamide azacyclic urea HIV protease inhibitors” (Bioorg Med Chem Lett, 2004).

Biological target: Human immunodeficiency virus type 1 protease (Human immunodeficiency virus 1, UniProt Q72874)
Test: Tested for inhibition of HIV protease

SMILES	Ki
O=C1N(Cc2ccc(O)cc2)[C@H](Cc2ccccc2)[C@H](O)CN(S(=O)(=O)c2ccccc2)N1Cc1ccc(O)cc1	1.37 nM
O=C(c1ccccc1)N1C[C@@H](O)[C@@H](Cc2ccccc2)N(Cc2ccc(O)cc2)C(=O)N1Cc1ccc(O)cc1	0.01 nM

Tested on: not listed separately
Test: Antiviral activity against HIV virus in presence of 50% human serum
Type: functional

EC50	SMILES
1090 nM	CCCCN1C(=O)N(Cc2cccc(C(=N)NO)c2)[C@H](Cc2ccccc2)[C@H](O)CN1S(=O)(=O)c1cccc(C(C)=O)c1
370 nM	CCCCN1C(=O)N(Cc2cccc(C(=N)NO)c2)[C@H](Cc2ccccc2)[C@H](O)CN1S(=O)(=O)c1cccc([N+](=O)[O-])c1
850 nM	CCCCN1C(=O)N(Cc2cccc(C(=N)NO)c2)[C@H](Cc2ccccc2)[C@H](O)CN1S(=O)(=O)c1cccc(C(C)O)c1 (stereo not given in full)
560 nM	CCCCN1C(=O)N(Cc2cccc(C(=N)NO)c2)[C@H](Cc2ccccc2)[C@H](O)CN1S(=O)(=O)c1cccc(OC)c1
1860 nM	C=Cc1cccc(S(=O)(=O)N2C[C@@H](O)[C@@H](Cc3ccccc3)N(Cc3cccc(C(=N)NO)c3)C(=O)N2CCCC)c1
2380 nM	CCCCN1C(=O)N(Cc2cccc(C(=N)NO)c2)[C@H](Cc2ccccc2)[C@H](O)CN1S(=O)(=O)c1cccc(N)c1
400 nM	CCCCN1C(=O)N(Cc2cccc(C(=N)NO)c2)[C@H](Cc2ccccc2)[C@H](O)CN1S(=O)(=O)c1cccc(/C(C)=N\O)c1
2490 nM	CCCCN1C(=O)N(Cc2cccc(C(=N)NO)c2)[C@H](Cc2ccccc2)[C@H](O)CN1S(=O)(=O)c1cccc(Br)c1
2560 nM	CCCCN1C(=O)N(Cc2cccc(C(=N)NO)c2)[C@H](Cc2ccccc2)[C@H](O)CN1S(=O)(=O)c1cccc(O)c1

Tested on: not listed separately
Test: Antiviral activity against HIV virus
Type: functional

EC50	SMILES
920 nM	Cc1cccc(S(=O)(=O)N2C[C@@H](O)[C@@H](Cc3ccccc3)N(Cc3ccc(O)cc3)C(=O)N2Cc2ccc(O)cc2)c1
870 nM	Cc1ccc(S(=O)(=O)N2C[C@@H](O)[C@@H](Cc3ccccc3)N(Cc3ccc(O)cc3)C(=O)N2Cc2ccc(O)cc2)cc1
590 nM	O=C1N(Cc2ccc(O)cc2)[C@H](Cc2ccccc2)[C@H](O)CN(S(=O)(=O)c2cccc(F)c2)N1Cc1ccc(O)cc1
1100 nM	O=C1N(Cc2ccc(O)cc2)[C@H](Cc2ccccc2)[C@H](O)CN(S(=O)(=O)c2ccc(Cl)cc2)N1Cc1ccc(O)cc1
750 nM	COc1ccc(S(=O)(=O)N2C[C@@H](O)[C@@H](Cc3ccccc3)N(Cc3ccc(O)cc3)C(=O)N2Cc2ccc(O)cc2)cc1
460 nM	COc1cccc(S(=O)(=O)N2C[C@@H](O)[C@@H](Cc3ccccc3)N(Cc3ccc(O)cc3)C(=O)N2Cc2ccc(O)cc2)c1
420 nM	O=C1N(Cc2ccc(O)cc2)[C@H](Cc2ccccc2)[C@H](O)CN(S(=O)(=O)c2cccc(Br)c2)N1Cc1ccc(O)cc1
940 nM	O=C1N(Cc2ccc(O)cc2)[C@H](Cc2ccccc2)[C@H](O)CN(S(=O)(=O)c2ccc(Cl)c(Cl)c2)N1Cc1ccc(O)cc1
3200 nM	O=C1N(Cc2ccc(O)cc2)[C@H](Cc2ccccc2)[C@H](O)CN(S(=O)(=O)c2ccc(Cl)cc2Cl)N1Cc1ccc(O)cc1
670 nM	O=C1N(Cc2ccc(O)cc2)[C@H](Cc2ccccc2)[C@H](O)CN(S(=O)(=O)c2cc(Cl)cc(Cl)c2)N1Cc1ccc(O)cc1
230 nM	Cc1ccccc1S(=O)(=O)N1C[C@@H](O)[C@@H](Cc2ccccc2)N(Cc2ccc(O)cc2)C(=O)N1Cc1ccc(O)cc1
1100 nM	O=C1N(Cc2ccc(O)cc2)[C@H](Cc2ccccc2)[C@H](O)CN(S(=O)(=O)c2ccc(C(F)(F)F)cc2)N1Cc1ccc(O)cc1
560 nM	O=C1N(Cc2ccc(O)cc2)[C@H](Cc2ccccc2)[C@H](O)CN(S(=O)(=O)c2cccc(Cl)c2Cl)N1Cc1ccc(O)cc1
810 nM	O=C1N(Cc2ccc(O)cc2)[C@H](Cc2ccccc2)[C@H](O)CN(S(=O)(=O)c2cccc([N+](=O)[O-])c2)N1Cc1ccc(O)cc1
200 nM	N#Cc1cccc(S(=O)(=O)N2C[C@@H](O)[C@@H](Cc3ccccc3)N(Cc3ccc(O)cc3)C(=O)N2Cc2ccc(O)cc2)c1

SMILES	EC50
O=C1N(Cc2ccc(O)cc2)[C@H](Cc2ccccc2)[C@H](O)CN(S(=O)(=O)c2ccccc2)N1Cc1ccc(O)cc1	450 nM

Tested on: not listed separately
Test: Antiviral activity against HIV virus in absence of human serum
Type: functional

EC50	SMILES
150 nM	CCCCN1C(=O)N(Cc2cccc(C(=N)NO)c2)[C@H](Cc2ccccc2)[C@H](O)CN1S(=O)(=O)c1cccc(C(C)=O)c1
40 nM	CCCCN1C(=O)N(Cc2cccc(C(=N)NO)c2)[C@H](Cc2ccccc2)[C@H](O)CN1S(=O)(=O)c1cccc([N+](=O)[O-])c1
40 nM	CCCCN1C(=O)N(Cc2cccc(C(=N)NO)c2)[C@H](Cc2ccccc2)[C@H](O)CN1S(=O)(=O)c1cccc(C(C)O)c1 (stereo not given in full)
220 nM	C=Cc1cccc(S(=O)(=O)N2C[C@@H](O)[C@@H](Cc3ccccc3)N(Cc3cccc(C(=N)NO)c3)C(=O)N2CCCC)c1
30 nM	CCCCN1C(=O)N(Cc2cccc(C(=N)NO)c2)[C@H](Cc2ccccc2)[C@H](O)CN1S(=O)(=O)c1cccc(N)c1
20 nM	CCCCN1C(=O)N(Cc2cccc(C(=N)NO)c2)[C@H](Cc2ccccc2)[C@H](O)CN1S(=O)(=O)c1cccc(/C(C)=N\O)c1
160 nM	CCCCN1C(=O)N(Cc2cccc(C(=N)NO)c2)[C@H](Cc2ccccc2)[C@H](O)CN1S(=O)(=O)c1cccc(Br)c1
150 nM	CCCCN1C(=O)N(Cc2cccc(C(=N)NO)c2)[C@H](Cc2ccccc2)[C@H](O)CN1S(=O)(=O)c1cccc(O)c1
